Measurements as given in patent US10988502B2, “Alpha-D-galactoside inhibitors of galectins” (GALECTO BIOTECH AB, priority 2016, dated 2021).

How the values were obtained:
[1] = biological target: Galectin-1 (Homo sapiens (Human), UniProt P09382); experiment: Fluorescence anisotropy assay, compound as inhibitor of galectin / fluorescein tagged saccharide probe interaction; type: binding
Procedure: (§1) The affinity of Example 1-32 for galectins were determined by a fluorescence anisotropy assay where the compound was used as an inhibitor of the interaction between galectin and a fluorescein tagged saccharide probe as described Sörme, P., Kahl-Knutsson, B., Huflejt, M., Nilsson, U. J., and Leffler H. (2004) Fluorescence polarization as an analytical tool to evaluate galectin-ligand interactions. Anal. Biochem. 334: 36-47, (Sörme et al., 2004) and Monovalent interactions of Galectin-1 By Salomonsson, Emma; Larumbe, Amaia; Tejler, Johan; Tullberg, Erik; Rydberg, Hanna; Sundin, Anders; Khabut, Areej; Frejd, Torbjorn; Lobsanov, Yuri D.; Rini, James M.; et al, From Biochemistry (2010), 49(44), 9518-9532, (Salonmonsson et al., 2010).

[2] = biological target: Galectin-3 (Homo sapiens (Human), UniProt P17931); experiment: as above; type: binding
Procedure: as §1

Galectin-3, sequence (P17931 whole entry): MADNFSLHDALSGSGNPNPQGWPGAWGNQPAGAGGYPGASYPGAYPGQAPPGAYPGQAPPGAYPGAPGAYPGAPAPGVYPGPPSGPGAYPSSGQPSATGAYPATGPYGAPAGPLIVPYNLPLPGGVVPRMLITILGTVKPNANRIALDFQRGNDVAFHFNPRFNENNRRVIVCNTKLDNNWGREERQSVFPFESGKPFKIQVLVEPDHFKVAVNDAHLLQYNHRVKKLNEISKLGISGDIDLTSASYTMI

| Structure (SMILES) | Kd [1] [nM] | Kd [2] [nM] |
| --- | --- | --- |
| OC[C@H]1O[C@H](Sc2ccc(Cl)c(Cl)c2)[C@H](O)[C@@H](n2cc(-c3ccc(F)s3)nn2)[C@H]1O [Example 9, 3,4-Dichlorophenyl 3-deoxy-3-[4-(5-fluoro-2-thiophenyl)-1H-1,2,3-triazol-1-yl]-1-thio-α-D-galactopyranoside] | 550 | 970 |
| OC[C@H]1O[C@H](Sc2ccc(Cl)c(Cl)c2)[C@H](O)[C@@H](n2cc(-c3nc(Cl)cs3)nn2)[C@H]1O [Example 31, 3,4-Dichlorophenyl 3-deoxy-3-[4-(4-chloro-thiazol-2-yl)-1H-1,2,3-triazol-1-yl]-1-thio-α-D-galactopyranoside] | 120 | 460 |
| OC[C@H]1O[C@H](Sc2cncc(Br)c2)[C@H](O)[C@@H](n2cc(-c3cscn3)nn2)[C@H]1O [Example 10, 5-Bromopyridin-3-yl 3-deoxy-3-[4-(4-thiazolyl)-1H-1,2,3-triazol-1-yl]-1-thio-α-D-galactopyranoside] | 250 | 4100 |
| OC[C@H]1O[C@H](Sc2cncc(Br)c2)[C@H](O)[C@@H](n2cc(-c3ccsc3)nn2)[C@H]1O [Example 3, 5-Bromopyridin-3-yl 3-deoxy-3-[4-(3-thiophenyl)-1H-1,2,3-triazol-1-yl]-1-thio-α-D-galactopyranoside] | 680 | 1700 |
| N#Cc1cc(F)c(S[C@H]2OC(CO)[C@H](O)[C@H](n3cc(-c4ccsc4)nn3)C2O)cc1Cl (stereo partly drawn) [Example 2, 2-Chloro-5-fluoro-benzonitril-4-yl 3-deoxy-3-[4-(3-thiophenyl)-1H-1,2,3-triazol-1-yl]-1-thio-α-D-galactopyranoside] | 190 | 1950 |
| OC[C@H]1O[C@H](Sc2cnc(C(F)(F)F)c(Br)c2)[C@H](O)[C@@H](n2cc(-c3nccs3)nn2)[C@H]1O [Example 26, 5-Bromo-6-trifluoromethyl-pyridine-3-yl 3-deoxy-3-[4-(2-thiazolyl)-1H-1,2,3-triazol-1-yl]-1-thio-α-D-galactopyranoside] | 310 | 2000 |
| OC[C@H]1O[C@H](Sc2ccc(Cl)c(Cl)c2)[C@H](O)[C@@H](n2cc(-c3nc(C(F)(F)F)cs3)nn2)[C@H]1O [Example 32, 3,4-Dichlorophenyl 3-deoxy-3-[4-(4-trifluoromethyl-thiazol-2-yl)-1H-1,2,3-triazol-1-yl]-1-thio-α-D-galactopyranoside] | 790 | 210 |
| OC[C@H]1O[C@H](Sc2cnc(C(F)(F)F)c(Br)c2)[C@H](O)[C@@H](n2cc(-c3cscn3)nn2)[C@H]1O [Example 11, 5-Bromo-6-trifluoromethyl-pyridin-3-yl 3-deoxy-3-[4-(4-thiazolyl)-1H-1,2,3-triazol-1-yl]-1-thio-α-D-galactopyranoside] | 170 | 2900 |
| OC[C@H]1O[C@H](Sc2ccc(Cl)c(Cl)c2)[C@H](O)[C@@H](n2cc(-c3ncc(F)s3)nn2)[C@H]1O [Example 30, 3,4-Dichlorophenyl 3-deoxy-3-[4-(5-fluoro-thiazol-2-yl)-1H-1,2,3-triazol-1-yl]-1-thio-α-D-galactopyranoside] | 400 | 1600 |
| Cc1nc(-c2cn([C@@H]3[C@@H](O)[C@@H](Sc4cncc(Br)c4)O[C@H](CO)[C@@H]3O)nn2)cs1 [Example 15, 5-Bromopyridin-3-yl 3-deoxy-3-[4-(2-methyl-4-thiazolyl)-1H-1,2,3-triazol-1-yl]-1-thio-α-D-galactopyranoside] | 640 | 3200 |
| OC[C@H]1O[C@H](Sc2ccc(Cl)c(Cl)c2)[C@H](O)[C@@H](n2cc(-c3cscn3)nn2)[C@H]1O [Example 12, 3,4-Dichlorophenyl 3-deoxy-3-[4-(4-thiazolyl)-1H-1,2,3-triazol-1-yl]-1-thio-α-D-galactopyranoside] | 310 | 5300 |
| N#Cc1ccc(S[C@H]2OC(CO)[C@H](O)[C@H](n3cc(-c4cscn4)nn3)C2O)cc1Cl (stereo partly drawn) [Example 13, 2-Chloro-benzonitril-4-yl 3-deoxy-3-[4-(4-thiazolyl)-1H-1,2,3-triazol-1-yl]-1-thio-α-D-galactopyranoside] | 370 | 6100 |
| OC[C@H]1O[C@H](Sc2cncc(Br)c2)[C@H](O)[C@@H](n2cc(-c3cccs3)nn2)[C@H]1O [Example 7, 5-Bromopyridin-3-yl 3-deoxy-3-[4-(2-thiophenyl)-1H-1,2,3-triazol-1-yl]-1-thio-α-D-galactopyranoside] | 450 | 1250 |
| OCC1O[C@H](Sc2ccc(Cl)c(Cl)c2)C(O)[C@@H](n2cc(-c3nc(Br)cs3)nn2)[C@H]1O (stereo partly drawn) [Example 29, 3,4-dichlorophenyl 3-deoxy-3-[4-(4-bromo-2-thiazol-2-yl)-1H-1,2,3-triazol-1-yl]-1-thio-α-D-galactopyranoside] | 150 | 810 |
| OC[C@H]1O[C@H](Sc2cc(Cl)c(F)c(Cl)c2)[C@H](O)[C@@H](n2cc(-c3cccs3)nn2)[C@H]1O [Example 8, 3,5-Dichloro-4-fluoro-phenyl 3-deoxy-3-[4-(2-thiophenyl)-1H-1,2,3-triazol-1-yl]-1-thio-α-D-galactopyranoside] | 920 | 2300 |
| OCC1O[C@H](Sc2cncc(Br)c2)C(O)[C@@H](n2cc(-c3nccs3)nn2)[C@H]1O (stereo partly drawn) [Example 20, 5-Bromopyrdin-3-yl 3-deoxy-3-[4-(2-thiazolyl)-1H-1,2,3-triazol-1-yl]-1-thio-α-D-galactopyranoside] | 550 | 4600 |
| OC[C@H]1O[C@H](Sc2ccc(Cl)c(Cl)c2)[C@H](O)[C@@H](n2cc(-c3ccc(F)cn3)nn2)[C@H]1O [Example 6, 3,4-Dichlorophenyl 3-deoxy-3-[4-(5-fluoro-2-pyridyl)-1H-1,2,3-triazol-1-yl]-1-thio-α-D-galactopyranoside] | 240 | 690 |

Other lines, results leading:

| Kd [1] [nM] | Kd [2] [nM] | Structure (SMILES) |
| --- | --- | --- |
| 200 | 1200 | N#Cc1ncc(Br)cc1S[C@H]1O[C@H](CO)[C@H](O)[C@H](n2cc(-c3nccs3)nn2)[C@H]1O [Example 22, 5-Bromo-2-cyano-pyridine-3-yl 3-deoxy-3-[4-(2-thiazolyl)-1H-1,2,3-triazol-1-yl]-1-thio-α-D-galactopyranoside] |
| 350 | 4400 | OC[C@H]1O[C@H](Sc2cc(Cl)c(Cl)c(Cl)c2)[C@H](O)[C@@H](n2cc(-c3nncs3)nn2)[C@H]1O [Example 19, 3,4,5-Trichlorophenyl 3-deoxy-3-[4-(1,3,4-thiadiazol-2-yl)-1H-1,2,3-triazol-1-yl]-1-thio-α-D-galactopyranoside] |
| 610 | 1300 | OC[C@H]1O[C@H](Sc2cc(Cl)c(Cl)c(Cl)c2)[C@H](O)[C@@H](n2cc(-c3nccs3)nn2)[C@H]1O [Example 17, 3,4,5-Trichlorophenyl 3-deoxy-3-[4-(2-thiazolyl)-1H-1,2,3-triazol-1-yl]-1-thio-α-D-galactopyranoside] |
| 340 | 1600 | OC[C@H]1O[C@H](Sc2cc(Cl)cc(Cl)c2)[C@H](O)[C@@H](n2cc(-c3nccs3)nn2)[C@H]1O [Example 24, 3,5-Dichlorophenyl 3-deoxy-3-[4-(2-thiazolyl)-1H-1,2,3-triazol-1-yl]-1-thio-α-D-galactopyranoside] |
| 800 | 12000 | N#Cc1c(Cl)cc(S[C@H]2OC(CO)[C@H](O)[C@H](n3cc(-c4nccs4)nn3)C2O)cc1Cl (stereo partly drawn) [Example 16, 2,6-Dichloro-bensonitril-4-yl 3-deoxy-3-[4-(2-thiazolyl)-1H-1,2,3-triazol-1-yl]-1-thio-α-D-galactopyranoside] |
| 440 | 4400 | N#Cc1ncc(S[C@H]2O[C@H](CO)[C@H](O)[C@H](n3cc(-c4nccs4)nn3)[C@H]2O)cc1Cl [Example 23, 5-Chloro-6-cyano-pyridine-3-yl 3-deoxy-3-[4-(2-thiazolyl)-1H-1,2,3-triazol-1-yl]-1-thio-α-D-galactopyranoside] |
| 490 | 4700 | OC[C@H]1O[C@H](Sc2ccc(F)c(Br)c2)[C@H](O)[C@@H](n2cc(-c3nccs3)nn2)[C@H]1O [Example 27, 3-Bromo-4-fluoro-phenyl 3-deoxy-3-[4-(2-thiazolyl)-1H-1,2,3-triazol-1-yl]-1-thio-α-D-galactopyranoside] |
| 910 | 8200 | OC[C@H]1O[C@H](Sc2cc(Cl)ccc2Cl)[C@H](O)[C@@H](n2cc(-c3nccs3)nn2)[C@H]1O [Example 28, 2,5-Dichlorophenyl 3-deoxy-3-[4-(2-thiazolyl)-1H-1,2,3-triazol-1-yl]-1-thio-α-D-galactopyranoside] |
| 440 | 4400 | OC[C@H]1O[C@H](Sc2ccc(Cl)c(Br)c2)[C@H](O)[C@@H](n2cc(-c3nccs3)nn2)[C@H]1O [Example 25, 3-Bromo-4-chlorophenyl 3-deoxy-3-[4-(2-thiazolyl)-1H-1,2,3-triazol-1-yl]-1-thio-α-D-galactopyranoside] |
| 220 | 1800 | OC[C@H]1O[C@H](Sc2cncc(Cl)c2)[C@H](O)[C@@H](n2cc(-c3nccs3)nn2)[C@H]1O [Example 21, 5-Chloropyridin-3-yl 3-deoxy-3-[4-(2-thiazolyl)-1H-1,2,3-triazol-1-yl]-1-thio-α-D-galactopyranoside] |
| 240 | 4100 | OC[C@H]1O[C@H](Sc2ccc(Cl)c(Cl)c2)[C@H](O)[C@@H](n2cc(-c3nccs3)nn2)[C@H]1O [Example 18, 3,4-Dichlorophenyl 3-deoxy-3-[4-(2-thiazolyl)-1H-1,2,3-triazol-1-yl]-1-thio-α-D-galactopyranoside] |
